These results are taken from US20230086913A1, “USE OF SOPHOROLIPIDS AS FEED ADDITIVE” (DSM IP ASSETS B.V., priority 2017, published 2023).

pIC50: −log10 of the molar value. Like-named read-outs stand apart in the source and are kept apart here.

The subject of one experiment is human PBLs. Briefly: Effect of sophorolipids on inflammatory mediators in LPS-treated human PBLs. Type of experiment: cell-based. Conditions: 1, 5 and 10 μm. The method, then:
PBLs were isolated from human blood. PBLs were treated with LPS to induce inflammatory response in the presence of different concentrations (1 μm, 5 μm, and 10 μm) of six sophorolipids: […]); BSL(6'OH,6''OH); and BSL(6'Ac,6''Ac).

The subject of a further experiment is Microglial cells. Description: Effect of sophorolipid pre-treatment on inflammatory mediators in LPS-stimulated microglia. It is filed as cell-based, rats. Conditions: E22 rat primary microglia, 24 h pre-treatment, LPS stimulation. The method, then: Microglial cells were obtained from primary microglial cultures from […] rats. On day 1, microglial cells were seeded in 96-well plates and allowed to adhere for 24 hours. On day 3, the microglial cells were pre-treated with sophorolipid for 24 hours (n=11). On day 4, the microglial cells were stimulated with lipopolysaccharide (LPS). On day 5, supernatants were collected and analysed for cytokines of interest.

For `CCCCOC(=O)CCCCCCC/C=C\CCCCCC[C@H](C)O[C@@H]1O[C@H](COC(C)=O)[C@@H](O)[C@H](O)[C@H]1O[C@@H]1O[C@H](COC(C)=O)[C@@H](O)[C@H](O)[C@H]1O` (relative stereo) [BSL(6′Ac,6″Ac), butyl-17-L-[(2′-0-β-D-glucopyranosyl-β-D-glucopyranosyl)-oxy]-cis-9-octadecenoate-6′-6″-diacetate], the TNF-α secretion entry with human PBLs is given as “decreased”.
For the compound `CCOC(=O)CCCCCCC/C=C\CCCCCC[C@H](C)O[C@@H]1O[C@H](CO)[C@@H](O)[C@H](O)[C@H]1O[C@@H]1O[C@H](COC(C)=O)[C@@H](O)[C@H](O)[C@H]1O` (relative stereo) [ESL(6′OH,6″Ac), ethyl-17-L-[(2′-0-β-D-glucopyranosyl-β-D-glucopyranosyl)-oxy]-cis-9-octadecenoate-6″-acetate], in the experiment on human PBLs, the MIP-1β secretion entry is reported as “decreased” and the TNF-α secretion result is reported as “decreased”.
With `CCOC(=O)CCCCCCC/C=C\CCCCCC[C@H](C)O[C@@H]1O[C@H](COC(C)=O)[C@@H](O)[C@H](O)[C@H]1O[C@@H]1O[C@H](COC(C)=O)[C@@H](O)[C@H](O)[C@H]1O` (relative stereo) [ESL(6′Ac,6″Ac), ethyl-17-L-[(2′-0-β-D-glucopyranosyl-β-D-glucopyranosyl)-oxy]-cis-9-octadecenoate-6′-6-diacetate], in the experiment on human PBLs, the IL-1β secretion entry is given as “decreased”, the IL-6 secretion result was “decreased”, the IL-8 secretion result is “decreased” and the MIP-1β secretion result is given as “decreased”. For the same compound, the TNF-α secretion entry in the experiment with human PBLs is reported as “decreased”.
Consider Sophorolipid, for which the pIC50 in the experiment with Microglial cells (read-out: PGE2 secretion, 1050) was 4.53; in the experiment with Microglial cells (read-out: TNF-alpha secretion, 1050), 4.67.
